Structures are written as SMILES.

The target of assay [1] is T1, Recombinant human liver GK1 (GST-GK) (Homo sapiens, UniProt P35557).
T1 construct: made in house; host or cells: E. coli
T1 sequence (P35557 1-466 isoform P35557-2): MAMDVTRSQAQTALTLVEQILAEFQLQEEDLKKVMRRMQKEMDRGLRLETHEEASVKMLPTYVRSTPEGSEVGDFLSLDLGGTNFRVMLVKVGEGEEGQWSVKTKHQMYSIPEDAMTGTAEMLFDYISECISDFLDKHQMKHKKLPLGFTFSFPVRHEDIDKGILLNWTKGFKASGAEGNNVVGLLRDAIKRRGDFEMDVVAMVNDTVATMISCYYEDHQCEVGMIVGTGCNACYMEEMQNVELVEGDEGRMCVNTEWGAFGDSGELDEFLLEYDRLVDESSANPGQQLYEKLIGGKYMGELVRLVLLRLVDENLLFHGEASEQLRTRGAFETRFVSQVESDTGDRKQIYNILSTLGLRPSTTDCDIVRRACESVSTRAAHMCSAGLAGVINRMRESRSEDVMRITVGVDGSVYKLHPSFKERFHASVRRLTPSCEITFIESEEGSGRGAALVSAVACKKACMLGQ
The assay can be described thus: Glucokinase in vitro assay (G6PDH-coupled NADH generation, OD340). Format: biochemical. The note with it: 5 mM D-glucose, 30° C., pH 7.1, 10% DMSO. The essentials: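 Activation readout is SC1.5, the activator concentration raising GK rate (OD340/min) 50% above 10% DMSO controls. The coupled reaction used GST-GK1 from E. coli, 5 mM glucose, 1 mM ATP, 1.8 mM NAD and 25 mM Hepes pH 7.1 at 30° C. Enzyme was added after a 10 min compound pre-incubation.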

Assay [2] concerns Lean C57BL/6J mice. In words: Glucokinase activator in vivo screen, blood glucose in lean mice. The settings on record: Mus musculus, vs control at 4 hours post 50 mg/kg oral dose, two hour fast, read-out: % glucose lowering @ 4 H. The protocol: Glucokinase Activator in vivo Screen Protocol in Lean and Diet Induced Obese Mice: Lean or Diet-induced Obese (DIO) C57BL/6J mice were orally dosed via gavage with Glucokinase (GK) activator following a two hour fasting period. Blood glucose determinations were made at various (e.g. 0, 1, 2, 4 and 8 hours post-oral gavage) times during the study.
C57Bl/6J mice were obtained from Jackson Laboratory (Bar Harbor, Me.) and were maintained in a light-dark cycle with lights on from 0600-1800 hr. For studies in lean mice, the mice were received at age ten weeks and given ad libitum access to control diet (LabDiet 5001 chow, PMI Nutrition, Brentwood, Mo.), and were at least age 11 weeks at the time of study. For studies in the DIO model, the mice were received at age five weeks and given ad libitum access to Bio-Serv F3282 High Fat Diet (Frenchtown, N.J.), and were at least age 16 weeks at the time of study. The experiments were conducted during the light phase of the light-dark cycle. Mice (n=6) are weighed and fasted for a two hour period prior to oral treatment. GK activators are formulated in Gelucire vehicle (Ethanol:Gelucire44/14:PEG400q.s. 4:66:30 v/w/v. For studies in lean mice, the mice were dosed orally with 5.0 μL per gram of body weight (i.e. 5 ml/kg×10.0 mg/ml formulation to equal a 50 mg/kg dose). For studies in DIO mice, the mice were dosed orally with 5.0 μL per gram of body weight (i.e. 5.0 ml/kg×5 mg/ml formulation to equal a 25 mg/kg dose). Immediately prior to dosing, a pre-dose (time zero) blood glucose reading was acquired by snipping off a small portion of the animal's tail and collecting 15 μL blood into a heparinized capillary tube for analysis. Following GK activator administration, additional blood glucose readings were taken at various time points post dose from the same tail wound. Results were interpreted by comparing the mean blood glucose values of vehicle treated mice with GK activator treated mice over the study period.
The Table below provides data for % glucose lowering of a representative number of compounds of the present invention vs control at 4 hours post 50 mg/kg dose in lean C57BL/6J mice: […]

On to `Cn1ccc(NC(=O)C(CC2CCCC2)n2ncc(Oc3ccccc3C(F)(F)F)cc2=O)n1` (stereo not shown) [Example 14, 3-Cyclopentyl-N-(1-methyl-1H-pyrazol-3-yl)-2-[6-oxo-4-(2-trifluoromethyl-phenoxy)-6H-pyridazin-1-yl]-propionamide], for which the “SC1.5 average (concentration of activator that produced a 50% increase in the activity of GK)” value in assay [1] stood at 0.256 µM. In assay [2], the change in vivo at 50 mg/kg was -46.7%.

As for `CC(C)(O)Cn1ccc(NC(=O)C(CC2CCCC2)n2ncc(Oc3ccccc3C#N)cc2=O)n1` (stereo not shown) [Example 29, 2-[4-(2-Cyano-phenoxy)-6-oxo-6H-pyridazin-1-yl]-3-cyclopentyl-N-[1-(2-hydroxy-2-methyl-propyl)-1H-pyrazol-3-yl]-propionamide], the “SC1.5 average (concentration of activator that produced a 50% increase in the activity of GK)” value in assay [1] was found to be 0.227 µM. The change in vivo at 50 mg/kg in assay [2] is -27.8%.

Take `CC(C)(O)Cn1ccc(NC(=O)C(CC2CCCC2)n2ncc(OC3CCCC3)cc2=O)n1` (stereo not shown) [Example 8, 3-Cyclopentyl-2-(4-cyclopentyloxy-6-oxo-6H-pyridazin-1-yl)-N-[1-(2-hydroxy-2-methyl-propyl)-1H-pyrazol-3-yl]-propionamide]: in assay [1], the “SC1.5 average (concentration of activator that produced a 50% increase in the activity of GK)” value was 1.323 µM. Also, the change in vivo at 50 mg/kg in assay [2] was -5.6%.

Consider `O=C(O)c1ccc(NC(=O)C(CC2CCCC2)n2ncc(Oc3ccccc3C3CCCC3)cc2=O)nc1` (stereo not shown) [Example 71, 6-{3-Cyclopentyl-2-[4-(2-cyclopentyl-phenoxy)-6-oxo-6H-pyridazin-1-yl]-propionylamino}-nicotinic acid], for which the “SC1.5 average (concentration of activator that produced a 50% increase in the activity of GK)” value in assay [1] was determined as 0.312 µM. Also, the change in vivo at 50 mg/kg in assay [2] was -61.7%.

With `CC(C)(O)Cn1ccc(NC(=O)C(CC2CCCC2)n2ncc(Oc3c(F)cccc3F)cc2=O)n1` (stereo not shown) [Example 36, 3-Cyclopentyl-2-[4-(2,6-difluoro-phenoxy)-6-oxo-6H-pyridazin-1-yl]-N-[1-(2-hydroxy-2-methyl-propyl)-1H-pyrazol-3-yl]-propionamide], the “SC1.5 average (concentration of activator that produced a 50% increase in the activity of GK)” value in assay [1] was 0.063 µM. For the same molecule, in assay [2], the change in vivo at 50 mg/kg is -60.9%.

As for `Cc1ccccc1Oc1cnn(C(CC2CCCC2)C(=O)Nc2ccn(CC(C)(C)O)n2)c(=O)c1` (stereo not shown) [Example 24, 3-Cyclopentyl-N-[1-(2-hydroxy-2-methyl-propyl)-1H-pyrazol-3-yl]-2-(6-oxo-4-o-tolyloxy-6H-pyridazin-1-yl)-propionamide], in assay [1], the “SC1.5 average (concentration of activator that produced a 50% increase in the activity of GK)” value was found to be 0.174 µM. The change in vivo at 50 mg/kg in assay [2] was -62.1%.

Consider `CC(C)(O)Cn1ccc(NC(=O)C(CC2CCCC2)n2ncc(Oc3ccccc3C3CCCC3)cc2=O)n1` (stereo not shown) [Example 22, 3-Cyclopentyl-2-[4-(2-cyclopentyl-phenoxy)-6-oxo-6H-pyridazin-1-yl]-N-[1-(2-hydroxy-2-methyl-propyl)-1H-pyrazol-3-yl]-propionamide], for which, in assay [1], the “SC1.5 average (concentration of activator that produced a 50% increase in the activity of GK)” value came to 0.347 µM. The change in vivo at 50 mg/kg in assay [2] is -31.6%.

For `CC(C)(O)Cn1ccc(NC(=O)C(CC2CCCC2)n2ncc(Oc3ccccc3F)cc2=O)n1` (stereo not shown) [Example 19, 3-Cyclopentyl-2-[4-(2-fluoro-phenoxy)-6-oxo-6H-pyridazin-1-yl]-N-[1-(2-hydroxy-2-methyl-propyl)-1H-pyrazol-3-yl]-propionamide], the “SC1.5 average (concentration of activator that produced a 50% increase in the activity of GK)” value in assay [1] worked out at 0.14 µM. The change in vivo at 50 mg/kg in assay [2] was -49.2%.

With `CC(C)(O)Cn1ccc(NC(=O)C(CC2CCCC2)n2ncc(Oc3cccc4c3CCCC4)cc2=O)n1` (stereo not shown) [Example 17, 3-Cyclopentyl-N-[1-(2-hydroxy-2-methyl-propyl)-1H-pyrazol-3-yl]-2-[6-oxo-4-(5,6,7,8-tetrahydro-naphthalen-1-yloxy)-6H-pyridazin-1-yl]-propionamide], the “SC1.5 average (concentration of activator that produced a 50% increase in the activity of GK)” value in assay [1] was found to be 0.113 µM. The change in vivo at 50 mg/kg in assay [2] was -35.2%.

`CC(C)(O)Cn1ccc(NC(=O)C(CC2CCCC2)n2ncc(Oc3cc(F)ccc3F)cc2=O)n1` (stereo not shown) [Example 33, 3-Cyclopentyl-2-[4-(2,5-difluoro-phenoxy)-6-oxo-6H-pyridazin-1-yl]-N-[1-(2-hydroxy-2-methyl-propyl)-1H-pyrazol-3-yl]-propionamide]: the “SC1.5 average (concentration of activator that produced a 50% increase in the activity of GK)” value in assay [1] came to 0.356 µM. Moreover, the change in vivo at 50 mg/kg in assay [2] was -30.2%.

`CC(C)(O)Cn1ccc(NC(=O)C(CC2CCCC2)n2ncc(Oc3ccccc3C(F)(F)F)cc2=O)n1` (stereo not shown) [Example 11, 3-Cyclopentyl-N-[1-(2-hydroxy-2-methyl-propyl)-1H-pyrazol-3-yl]-2-[6-oxo-4-(2-trifluoromethyl-phenoxy)-6H-pyridazin-1-yl]-propionamide]: the “SC1.5 average (concentration of activator that produced a 50% increase in the activity of GK)” value in assay [1] is 0.206 µM. For the same molecule, the change in vivo at 50 mg/kg in assay [2] is -48.9%.

Take `O=C(Nc1nccs1)C(CC1CCCC1)n1ncc(Oc2ccccc2)cc1=O` (stereo not shown) [Example 2, 3-Cyclopentyl-2-(6-oxo-4-phenoxy-6H-pyridazin-1-yl)-N-thiazol-2-yl-propionamide]: in assay [1], the “SC1.5 average (concentration of activator that produced a 50% increase in the activity of GK)” value came to 0.206 µM. The change in vivo at 50 mg/kg in assay [2] is -41.9%.

In the case of `COc1ccccc1Oc1cnn(C(CC2CCCC2)C(=O)Nc2ccn(CC(C)(C)O)n2)c(=O)c1` (stereo not shown) [Example 12, 3-Cyclopentyl-N-[1-(2-hydroxy-2-methyl-propyl)-1H-pyrazol-3-yl]-2-[4-(2-methoxy-phenoxy)-6-oxo-6H-pyridazin-1-yl]-propionamide], in assay [1], the “SC1.5 average (concentration of activator that produced a 50% increase in the activity of GK)” value is 0.117 µM. Also, the change in vivo at 50 mg/kg in assay [2] is -49.3%.

On to `Cn1nc(NC(=O)C(CC2CCCC2)n2ncc(Oc3ccccc3C(F)(F)F)cc2=O)cc1Cl` (stereo not shown) [Example 13, N-(5-Chloro-1-methyl-1H-pyrazol-3-yl)-3-cyclopentyl-2-[6-oxo-4-(2-trifluoromethyl-phenoxy)-6H-pyridazin-1-yl]-propionamide], for which the “SC1.5 average (concentration of activator that produced a 50% increase in the activity of GK)” value in assay [1] came out at 0.179 µM. The change in vivo at 50 mg/kg in assay [2] is -45.8%.

The record behind these values is patent publication US8258134B2, “Pyridazinone glucokinase activators” (Hoffmann-La Roche Inc., priority 2008, dated 2012).
